The text below walks through data of patent publication US7626031B2, “Substituted 3-(diarylmethylene)indolin-2-ones and methods of their use” (Symphony Evolution, Inc., priority 2002, dated 2009).

Bounds are passed on as bounds.

One assay deals with EGFR (Homo sapiens, UniProt P00533). Briefly: Kinase assay, EGFR (33P-ATP incorporation or luciferase-coupled ATP consumption). It counts as biochemical. Put shortly: (§1)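 Radiometric format: γ-33P ATP incorporation into plate-immobilized myelin basic protein, enzyme 10 nM or 20 nM, 10 μM or 30 μM unlabeled ATP, 1 h at room temperature, 1% DMSO, scintillation counting; alternatively luciferase-measured ATP consumption with pEY substrate. ATP set near each kinase's KM; 10-point dose-response.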

Another assay concerns the target EphA2 (Homo sapiens, UniProt P29317). Briefly: Kinase assay, EphA2 (33P-ATP incorporation or luciferase-coupled ATP consumption). Format: biochemical. Put shortly: as §1
The next assay deals with FGFR1 (Homo sapiens, UniProt P11362). As to the kind of experiment: Kinase assay, FGFR1 (33P-ATP incorporation or luciferase-coupled ATP consumption). Format: biochemical. Put shortly: as §1
The next assay deals with Fyn (Homo sapiens, UniProt P06241). Briefly: Kinase assay, Fyn. It counts as biochemical. How it is done: (§2) Kinase activity and compound inhibition are investigated using one or more assay formats. The ATP concentrations for each assay are selected to be close to the Michaelis-Menten constant (KM) for each individual kinase. Dose-response experiments are performed at 10 different inhibitor concentrations in a 384-well plate format. […] Exemplary kinase assays are described below. KDR Assay

Assay [1] deals with T1, KDR (baculovirus expressed human KDR kinase domain D807-V1356) (Homo sapiens, UniProt P35968).
T1 construct: human KDR kinase domain D807-V1356; host or cells: baculovirus expression system
Briefly: biochemical. Put shortly:
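Luciferase-coupled chemiluminescence quantifies ATP left after a 4 h room-temperature reaction of KDR kinase domain (D807–V1356, baculovirus-expressed human). ATP set close to KM; inhibitors tested at 10 concentrations.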

For the next assay, the target named is Flt-1 (Homo sapiens, UniProt P17948). Briefly: Kinase assay, Flt-1 (33P-ATP incorporation or luciferase-coupled ATP consumption). It counts as biochemical. The conditions noted are these: read-out: Flt1 IC50. How it is done: Kinase assays were performed by measurement of incorporation of γ-^33P ATP into immobilized myelin basic protein (MBP). […] Plates were washed 3× with 100 μl TBS. […] Compound dilutions were performed in DMSO and added to assay wells to a final DMSO concentration of 1%. Each data point was measured in duplicate, and at least two duplicate assays were performed for each individual compound determination. Enzyme was added to final concentrations of 10 nM or 20 nM, for example. A mixture of unlabeled ATP and γ-^33P ATP was added to start the reaction (2×10^6 cpm of γ-^33P ATP per well (3000 Ci/mmole) and either 10 μM or 30 μM unlabeled ATP, typically. The reactions were carried out for 1 hour at room temperature with shaking. Plates were washed 7× with TBS, followed by the addition of 50 μl/well scintillation fluid (Wallac). Plates were read using a Wallac Trilux counter. This is only one format of such assays, various other formats are possible, as known to one of ordinary skill in the art.
Tyrosine kinase activity is determined by 1) measurement of kinase-dependent ATP consumption by in the presence of a generic substrate such as, polyglutamic acid, tyrosine, 4:1 (pEY), by luciferase/luciferin-mediated chemiluminescence or; 2) incorporation of radioactive phosphate derived from ^33P-ATP into a generic substrate which has been adsorbed onto the well surface of polystyrene microtiter plates. Phosphorylated substrate products are quantified by scintillation spectrometry.
as §2

Another assay has as its target IRK (Homo sapiens, UniProt P06213). Briefly: Kinase assay, IRK. Format: biochemical. Here is the method:
as §2

In the next assay the target is PDGFR alpha (Homo sapiens, UniProt P16234). Briefly: Kinase assay, PDGFR alpha (33P-ATP incorporation or luciferase-coupled ATP consumption). Conditions: read-out: PDGF-R-A IC50. Format: biochemical. Put shortly:
as §1

Chain of FGFR1 (P11362 22-822, species assumed): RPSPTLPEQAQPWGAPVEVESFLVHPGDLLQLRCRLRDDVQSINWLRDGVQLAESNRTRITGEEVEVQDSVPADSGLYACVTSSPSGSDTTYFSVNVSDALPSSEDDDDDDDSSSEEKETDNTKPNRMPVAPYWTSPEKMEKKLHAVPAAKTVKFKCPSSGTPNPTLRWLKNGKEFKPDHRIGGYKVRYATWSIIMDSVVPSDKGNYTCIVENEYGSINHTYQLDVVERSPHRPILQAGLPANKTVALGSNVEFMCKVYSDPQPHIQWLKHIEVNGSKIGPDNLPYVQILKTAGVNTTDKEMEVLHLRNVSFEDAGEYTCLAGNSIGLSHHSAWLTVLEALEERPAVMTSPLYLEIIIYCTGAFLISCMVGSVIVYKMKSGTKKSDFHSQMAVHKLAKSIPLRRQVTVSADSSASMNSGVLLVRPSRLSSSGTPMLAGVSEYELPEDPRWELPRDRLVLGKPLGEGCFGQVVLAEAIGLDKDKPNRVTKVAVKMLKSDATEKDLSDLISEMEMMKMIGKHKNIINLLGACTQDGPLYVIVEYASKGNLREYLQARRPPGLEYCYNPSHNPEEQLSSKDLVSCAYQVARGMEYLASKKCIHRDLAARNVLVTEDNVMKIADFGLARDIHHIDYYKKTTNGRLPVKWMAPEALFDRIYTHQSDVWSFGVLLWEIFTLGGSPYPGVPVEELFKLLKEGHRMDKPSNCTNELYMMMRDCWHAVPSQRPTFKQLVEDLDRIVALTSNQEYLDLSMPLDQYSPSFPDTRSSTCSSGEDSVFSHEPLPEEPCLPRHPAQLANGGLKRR
Chain of EGFR (P00533 25-1210, species assumed): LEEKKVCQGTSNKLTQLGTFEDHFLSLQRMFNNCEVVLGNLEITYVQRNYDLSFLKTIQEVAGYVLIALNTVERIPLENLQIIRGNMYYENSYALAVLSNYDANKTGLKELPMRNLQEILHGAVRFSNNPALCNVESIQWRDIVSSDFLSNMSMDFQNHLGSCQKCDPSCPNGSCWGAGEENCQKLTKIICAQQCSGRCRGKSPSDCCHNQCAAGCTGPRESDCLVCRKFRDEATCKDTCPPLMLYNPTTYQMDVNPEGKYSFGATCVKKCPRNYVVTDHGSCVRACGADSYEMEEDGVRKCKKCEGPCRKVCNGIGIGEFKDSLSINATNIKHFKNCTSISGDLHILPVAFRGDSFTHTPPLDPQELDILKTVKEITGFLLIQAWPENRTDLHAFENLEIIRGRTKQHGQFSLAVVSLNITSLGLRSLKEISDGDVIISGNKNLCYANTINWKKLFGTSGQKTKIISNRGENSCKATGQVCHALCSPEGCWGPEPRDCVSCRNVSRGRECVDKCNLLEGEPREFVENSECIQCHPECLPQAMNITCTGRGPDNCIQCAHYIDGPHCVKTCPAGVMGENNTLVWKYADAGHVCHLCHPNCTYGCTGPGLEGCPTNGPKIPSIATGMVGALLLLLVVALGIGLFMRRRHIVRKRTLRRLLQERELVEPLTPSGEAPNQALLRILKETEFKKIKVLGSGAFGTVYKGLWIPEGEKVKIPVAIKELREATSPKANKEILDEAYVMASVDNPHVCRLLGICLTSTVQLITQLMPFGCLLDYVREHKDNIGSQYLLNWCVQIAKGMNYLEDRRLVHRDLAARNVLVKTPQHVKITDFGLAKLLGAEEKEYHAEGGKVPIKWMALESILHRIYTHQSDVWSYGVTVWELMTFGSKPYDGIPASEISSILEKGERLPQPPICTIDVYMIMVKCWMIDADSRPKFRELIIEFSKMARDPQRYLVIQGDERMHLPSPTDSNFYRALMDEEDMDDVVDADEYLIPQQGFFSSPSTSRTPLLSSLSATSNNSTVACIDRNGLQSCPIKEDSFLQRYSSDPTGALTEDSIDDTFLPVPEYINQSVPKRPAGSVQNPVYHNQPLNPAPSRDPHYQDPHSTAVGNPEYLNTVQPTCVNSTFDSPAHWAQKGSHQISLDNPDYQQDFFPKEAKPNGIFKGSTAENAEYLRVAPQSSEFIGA
Chain of Flt-1 (P17948 27-1338, species assumed): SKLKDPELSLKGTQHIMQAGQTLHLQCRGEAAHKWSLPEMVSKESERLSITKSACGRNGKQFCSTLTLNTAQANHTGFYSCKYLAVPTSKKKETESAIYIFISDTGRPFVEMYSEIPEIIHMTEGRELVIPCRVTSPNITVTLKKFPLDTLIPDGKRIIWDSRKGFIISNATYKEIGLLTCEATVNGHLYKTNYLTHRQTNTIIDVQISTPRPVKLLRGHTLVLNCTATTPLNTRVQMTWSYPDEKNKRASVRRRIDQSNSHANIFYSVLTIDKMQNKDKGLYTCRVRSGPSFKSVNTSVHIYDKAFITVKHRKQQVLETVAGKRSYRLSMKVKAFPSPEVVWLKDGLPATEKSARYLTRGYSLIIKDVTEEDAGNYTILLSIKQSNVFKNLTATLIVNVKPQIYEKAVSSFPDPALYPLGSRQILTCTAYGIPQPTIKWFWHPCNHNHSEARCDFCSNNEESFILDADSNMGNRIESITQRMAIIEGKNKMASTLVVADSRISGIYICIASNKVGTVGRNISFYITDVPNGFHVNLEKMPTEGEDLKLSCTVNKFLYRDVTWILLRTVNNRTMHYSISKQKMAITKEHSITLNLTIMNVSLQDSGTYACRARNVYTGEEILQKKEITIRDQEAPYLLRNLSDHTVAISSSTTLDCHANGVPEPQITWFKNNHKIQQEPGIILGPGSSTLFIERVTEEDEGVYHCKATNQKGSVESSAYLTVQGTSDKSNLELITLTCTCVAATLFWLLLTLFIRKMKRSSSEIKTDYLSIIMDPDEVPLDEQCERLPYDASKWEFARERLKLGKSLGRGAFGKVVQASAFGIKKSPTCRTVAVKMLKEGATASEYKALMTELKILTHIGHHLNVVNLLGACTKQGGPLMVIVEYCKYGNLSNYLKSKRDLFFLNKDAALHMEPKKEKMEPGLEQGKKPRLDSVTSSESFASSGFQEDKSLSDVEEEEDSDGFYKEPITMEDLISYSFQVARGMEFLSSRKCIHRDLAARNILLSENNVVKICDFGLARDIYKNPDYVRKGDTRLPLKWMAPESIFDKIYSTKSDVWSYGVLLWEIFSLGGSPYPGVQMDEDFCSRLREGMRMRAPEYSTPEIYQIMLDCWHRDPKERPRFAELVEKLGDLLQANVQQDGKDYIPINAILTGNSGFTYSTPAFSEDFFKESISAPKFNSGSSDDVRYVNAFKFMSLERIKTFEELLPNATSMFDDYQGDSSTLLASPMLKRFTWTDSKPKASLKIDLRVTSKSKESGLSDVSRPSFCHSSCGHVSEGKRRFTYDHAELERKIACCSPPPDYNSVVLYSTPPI
T1 sequence (P35968 807-1356): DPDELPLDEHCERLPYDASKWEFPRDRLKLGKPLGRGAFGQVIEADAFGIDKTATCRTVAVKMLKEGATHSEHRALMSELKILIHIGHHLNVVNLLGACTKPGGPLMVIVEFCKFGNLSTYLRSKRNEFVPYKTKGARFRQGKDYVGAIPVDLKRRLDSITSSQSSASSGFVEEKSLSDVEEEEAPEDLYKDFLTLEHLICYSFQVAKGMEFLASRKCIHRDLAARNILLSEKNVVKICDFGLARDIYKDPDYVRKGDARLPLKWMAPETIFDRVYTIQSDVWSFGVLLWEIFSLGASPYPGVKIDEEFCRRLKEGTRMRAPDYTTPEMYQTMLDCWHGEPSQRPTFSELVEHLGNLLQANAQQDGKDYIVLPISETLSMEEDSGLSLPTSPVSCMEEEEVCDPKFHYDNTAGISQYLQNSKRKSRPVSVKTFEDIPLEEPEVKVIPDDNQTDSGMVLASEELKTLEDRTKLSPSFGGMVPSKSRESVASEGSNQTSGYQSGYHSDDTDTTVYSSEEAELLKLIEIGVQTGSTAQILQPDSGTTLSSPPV
Chain of PDGFR alpha (P16234 24-1089): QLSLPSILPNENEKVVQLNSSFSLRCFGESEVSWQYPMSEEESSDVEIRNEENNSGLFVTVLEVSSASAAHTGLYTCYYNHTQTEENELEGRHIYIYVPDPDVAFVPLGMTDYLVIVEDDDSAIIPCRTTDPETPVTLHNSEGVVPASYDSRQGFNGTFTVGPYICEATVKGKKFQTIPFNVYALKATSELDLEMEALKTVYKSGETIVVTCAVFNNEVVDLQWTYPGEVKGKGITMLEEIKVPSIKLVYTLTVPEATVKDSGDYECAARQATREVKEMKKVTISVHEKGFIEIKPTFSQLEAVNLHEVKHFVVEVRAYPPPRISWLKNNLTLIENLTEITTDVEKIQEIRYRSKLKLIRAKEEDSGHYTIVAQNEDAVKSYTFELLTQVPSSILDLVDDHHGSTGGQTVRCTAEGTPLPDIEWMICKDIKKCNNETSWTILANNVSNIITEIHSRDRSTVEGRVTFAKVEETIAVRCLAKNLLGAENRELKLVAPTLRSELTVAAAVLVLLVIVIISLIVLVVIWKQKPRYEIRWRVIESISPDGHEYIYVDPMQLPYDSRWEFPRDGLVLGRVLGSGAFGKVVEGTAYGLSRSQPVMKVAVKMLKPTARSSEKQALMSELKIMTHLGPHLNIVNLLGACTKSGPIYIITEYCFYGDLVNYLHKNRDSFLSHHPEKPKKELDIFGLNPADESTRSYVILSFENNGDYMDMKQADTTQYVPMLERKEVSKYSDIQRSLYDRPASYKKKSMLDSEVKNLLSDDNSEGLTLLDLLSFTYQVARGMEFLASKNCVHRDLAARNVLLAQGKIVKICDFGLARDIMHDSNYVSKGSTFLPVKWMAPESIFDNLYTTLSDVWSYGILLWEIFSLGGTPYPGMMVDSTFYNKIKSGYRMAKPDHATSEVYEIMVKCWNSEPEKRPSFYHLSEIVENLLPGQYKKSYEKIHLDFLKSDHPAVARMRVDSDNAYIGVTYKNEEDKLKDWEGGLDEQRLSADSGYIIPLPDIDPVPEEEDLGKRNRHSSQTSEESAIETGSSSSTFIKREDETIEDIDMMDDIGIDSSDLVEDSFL

A word on the IC50: it is the concentration that gives 50% inhibition. As to `CCN1CCC(Nc2ccc3c(c2)/C(=C(\c2cccc(Cl)c2)c2ncc[nH]2)C(=O)N3)CC1` [Entry 48, (3Z)-3-[(3-chlorophenyl)(1H-imidazol-2-yl)methylidene]-5-[(1-ethylpiperidin-4-yl)amino]-1,3-dihydro-2H-indol-2-one], the IC50 against EGFR is 50 to 500 nM; at EphA2, 500 to 5000 nM; on FGFR1, below 50 nM; on Fyn, below 50 nM; in assay [1] it was below 50 nM; on Flt-1 it was 50 to 500 nM. For the same compound, the IC50 at IRK was above 5000 nM; on PDGFR alpha, below 50 nM.

`CCN1CCC(Nc2ccc3c(c2)/C(=C(\c2cccc(Cl)c2)c2nc4ccccc4[nH]2)C(=O)N3)CC1` [Entry 27, (3Z)-3-[1H-benzimidazol-2-yl(3-chlorophenyl)methylidene]-5-[(1-ethylpiperidin-4-yl)amino]-1,3-dihydro-2H-indol-2-one]: the 50% inhibitory concentration (IC50) at EGFR was 50 to 500 nM; against EphA2, 50 to 500 nM; on FGFR1, below 50 nM; on Fyn, below 50 nM; in assay [1], below 50 nM; on Flt-1, below 50 nM. Moreover, the IC50 at IRK was 50 to 500 nM; on PDGFR alpha, below 50 nM.

For `COCCN1CCC(Oc2ccc3c(c2)/C(=C(\c2cc(F)cc(F)c2)c2nc4ccccc4[nH]2)C(=O)N3)CC1` [Entry 36, (3Z)-3-[1H-benzimidazol-2-yl(3,5-difluorophenyl)methylidene]-5-({1-[2-(methyloxy)ethyl]piperidin-4-yl}oxy)-1,3-dihydro-2H-indol-2-one], the IC50 against EGFR was 500 to 5000 nM; against EphA2, 500 to 5000 nM; on FGFR1, 50 to 500 nM; on Fyn, below 50 nM; in assay [1] it was below 50 nM; on Flt-1 it was 500 to 5000 nM. Also, the IC50 at IRK is 500 to 5000 nM; at PDGFR alpha, below 50 nM.

For the compound `CCN1CCC(N(C)c2ccc3c(c2)/C(=C(\c2cccc(Cl)c2)c2nc4ccccc4[nH]2)C(=O)N3)CC1` [Entry 43], the IC50 is 500 to 5000 nM against EGFR; 500 to 5000 nM on EphA2; 50 to 500 nM against FGFR1; 50 to 500 nM against Fyn; below 50 nM in assay [1]; 500 to 5000 nM on Flt-1. Moreover, the IC50 against IRK was 500 to 5000 nM; at PDGFR alpha, 50 to 500 nM.

`COCCN1CCC(Nc2ccc3c(c2)/C(=C(\c2cccc(F)c2)c2nc4ccccc4[nH]2)C(=O)N3)CC1` [Entry 46, (3Z)-3-[1H-benzimidazol-2-yl(3-fluorophenyl)methylidene]-5-({1-[2-(methyloxy)ethyl]piperidin-4-yl}amino)-1,3-dihydro-2H-indol-2-one]: the IC50 is 50 to 500 nM at EGFR; 500 to 5000 nM against EphA2; 50 to 500 nM against FGFR1; below 50 nM against Fyn; below 50 nM in assay [1]; 50 to 500 nM at Flt-1. Further, the values for the IC50 on IRK and on PDGFR alpha were 500 to 5000 nM and below 50 nM, respectively.

As to `COCCN1CCC(Nc2ccc3c(c2)/C(=C(\c2cccc(Cl)c2)c2nc4ccccc4[nH]2)C(=O)N3)CC1` [Entry 38, (3Z)-3-[1H-benzimidazol-2-yl(3-chlorophenyl)methylidene]-5-({1-[2-(methyloxy)ethyl]piperidin-4-yl}amino)-1,3-dihydro-2H-indol-2-one], the IC50 at EGFR was 500 to 5000 nM; against EphA2, 500 to 5000 nM; against FGFR1, below 50 nM; against Fyn it was below 50 nM; in assay [1] it was below 50 nM; at Flt-1, 50 to 500 nM. The IC50 against IRK was 500 to 5000 nM; on PDGFR alpha, below 50 nM.

With `COCCN1CCC(Nc2ccc3c(c2)/C(=C(\c2ccc(F)cc2)c2nc4ccccc4[nH]2)C(=O)N3)CC1` [Entry 47, (3Z)-3-[1H-benzimidazol-2-yl(4-fluorophenyl)methylidene]-5-({1-[2-(methyloxy)ethyl]piperidin-4-yl}amino)-1,3-dihydro-2H-indol-2-one], the IC50 against EGFR was 500 to 5000 nM; against EphA2, 500 to 5000 nM; against FGFR1 it was 50 to 500 nM; against Fyn, 50 to 500 nM; in assay [1], below 50 nM; on Flt-1 it was 500 to 5000 nM. In addition, the IC50 is 500 to 5000 nM against IRK and below 50 nM at PDGFR alpha.

Consider `CCN1CCC(Oc2ccc3c(c2)/C(=C(\c2cccc(Cl)c2)c2ncc[nH]2)C(=O)N3)CC1` [Entry 44, (3Z)-3-[(3-chlorophenyl)(1H-imidazol-2-yl)methylidene]-5-[(1-ethylpiperidin-4-yl)oxy]-1,3-dihydro-2H-indol-2-one], for which the IC50 was 500 to 5000 nM against EGFR; 500 to 5000 nM against EphA2; 50 to 500 nM on FGFR1; 50 to 500 nM against Fyn; below 50 nM in assay [1]; 500 to 5000 nM at Flt-1. Moreover, the IC50 against IRK fell in the range of 500 to 5000 nM; at PDGFR alpha, 50 to 500 nM.

Regarding `COCCN1CCC(Nc2ccc3c(c2)/C(=C(\c2cccc(OC)c2)c2nc4ccccc4[nH]2)C(=O)N3)CC1` [Entry 39, (3Z)-3-{1H-benzimidazol-2-yl[3-(methyloxy)phenyl]methylidene}-5-({1-[2-(methyloxy)ethyl]piperidin-4-yl}amino)-1,3-dihydro-2H-indol-2-one], the IC50 against EGFR was 500 to 5000 nM; at EphA2, 500 to 5000 nM; at FGFR1, below 50 nM; against Fyn, below 50 nM; in assay [1] it was below 50 nM; on Flt-1, 50 to 500 nM. For the same compound, the IC50 against IRK is 500 to 5000 nM; at PDGFR alpha, below 50 nM.

With `CCN1CCC(Nc2ccc3c(c2)/C(=C(\c2cccc(OC)c2)c2nc4ccccc4[nH]2)C(=O)N3)CC1` [Entry 26, (3Z)-3-{1H-benzimidazol-2-yl [3-(methyloxy)phenyl]methylidene}-5-[(1-ethylpiperidin-4-yl)amino]-1,3-dihydro-2H-indol-2-one], the IC50 was 50 to 500 nM against EGFR; 500 to 5000 nM against EphA2; below 50 nM against FGFR1; below 50 nM on Fyn; below 50 nM in assay [1]; below 50 nM on Flt-1. Also, the IC50 against IRK was 500 to 5000 nM; on PDGFR alpha, below 50 nM.

`CCN1CCC(Nc2ccc3c(c2)/C(=C(\c2ccc(C)c(F)c2)c2nc4ccccc4[nH]2)C(=O)N3)CC1` [Entry 50, (3Z)-3-[1H-benzimidazol-2-yl(3-fluoro-4-methylphenyl)methylidene]-5-{(1-ethylpiperidin-4-yl)amino]-1,3-dihydro-2H-indol-2-one]: the IC50 on EGFR is below 50 nM; at EphA2 it was 500 to 5000 nM; on FGFR1, below 50 nM; against Fyn, below 50 nM; in assay [1] it was below 50 nM; on Flt-1, below 50 nM. The IC50 is 500 to 5000 nM against IRK and below 50 nM at PDGFR alpha.

In the case of `COCCN1CCC(Nc2ccc3c(c2)/C(=C(\c2cc(F)cc(F)c2)c2nc4ccccc4[nH]2)C(=O)N3)CC1` [Entry 42], the IC50 was 50 to 500 nM on EGFR; 500 to 5000 nM at EphA2; below 50 nM against FGFR1; below 50 nM on Fyn; below 50 nM in assay [1]; 50 to 500 nM on Flt-1. The figures for the IC50 at IRK and on PDGFR alpha were above 5000 nM and below 50 nM, respectively.

With `COCCN1CCC(Nc2ccc3c(c2)/C(=C(\c2cccc(Cl)c2)c2ncc[nH]2)C(=O)N3)CC1` [Entry 40, (3Z)-3-[(3-chlorophenyl)(1H-imidazol-2-yl)methylidene]-5-({1-[2-(methyloxy)ethyl]piperidin-4-yl}amino)-1,3-dihydro-2H-indol-2-one], the IC50 on EGFR was 500 to 5000 nM; against EphA2, 500 to 5000 nM; on FGFR1, below 50 nM; against Fyn it was below 50 nM; in assay [1], below 50 nM; at Flt-1 it was 50 to 500 nM. Also, the half-maximal inhibitory concentration (IC50) at IRK was 500 to 5000 nM; at PDGFR alpha it was below 50 nM.
